Measurements reported in patent US20090087845A1, “Genetic Markers Of True Low Birth Weight” (priority 2005, published 2009).
Several values for one entry are separate records, joined by “and”; a condition that tells them apart may be missing. Equal values may be shown once.

System: placental gene expression
Experiment: Placental gene expression (Affymetrix Rat Genome Chip 230.2) after SSRI (fluoxetine) exposure throughout gestation
Format: in vivo
Method: Gene expression data from pregnant rats under different forms of dietary restriction was gathered. […] (N=8) • Group 2 (CR50): Rats Given 50% of their Normal Daily Intake of Food. (N=5) • Group 3 (CR70): Rats Given 70% of their Normal Daily Intake of Food. […] (N=6) Placentas from the rats of each Group were harvested on Day 21 of gestation. RNA was extracted and gene expression was measured based on hybridization of RNA to Affymetrix Rat Genome Chips™ (230.2) (Affymetrix, Santa Clara, Calif.).
In order to determine whether placental gene expression profiling can be used to identify other prenatal exposures such as toxicants and drugs, a group of rats with drug exposure was monitored as described above. […] As with control, CR50, CR70, and HF groups, placentas from the mothers were sampled after 21 days of gestation and gene expression monitored utilizing an Affymetrix Rat Genome Chip.

[1] = placenta, SSRI exposure during gestation, each SSRI column = one sample

CNCCC(Oc1ccc(C(F)(F)F)cc1)c1ccccc1 (centres unmarked) [fluoxetine, Fluoxetine]
Probeset 1391509_at expression (SSRI exposure during gestation): 8.436 and 8.44 and 8.929 and 8.687 and 8.508 and 8.574
Probeset 1391678_at expression (SSRI exposure during gestation): 7.246 and 7.316 and 7.365 and 7.475 and 7.387 and 7.426
Probeset 1391962_at expression (SSRI exposure during gestation): 3.906 and 3.859 and 3.835 and 3.838 and 3.857 and 3.918
Probeset 1392950_at expression (SSRI exposure during gestation): 3.887 and 3.884 and 3.809 and 3.812 and 3.82 and 3.885
Probeset 1393104_at expression (SSRI exposure during gestation): 5.976
Probeset 1393428_at expression (SSRI exposure during gestation): 6.023 and 6.1025 and 6.34 and 6.137 and 6.165 and 5.935
Probeset 1393438_at expression (SSRI exposure during gestation): 5.322 and 5.381 and 5.359 and 5.376 and 5.366 and 5.287
Probeset 1393539_at expression (SSRI exposure during gestation): 5.342 and 5.53 and 5.247 and 5.255 and 5.363 and 5.602
Probeset 1393939_at expression (SSRI exposure during gestation): 4.456 and 4.322 and 4.388 and 4.385 and 4.239 and 4.386
Probeset 1393989_at expression (SSRI exposure during gestation): 7.171 and 6.991 and 7.091 and 6.963 and 7.057 and 6.799
Probeset 1394343_s_at expression (SSRI exposure during gestation): 3.578 and 3.612 and 3.498 and 3.586 and 3.588 and 3.604
Probeset 1394383_at expression (SSRI exposure during gestation): 6.226 and 6.542 and 6.277 and 5.892 and 6.155 and 6.124
Probeset 1394790_at expression (SSRI exposure during gestation): 6.517 and 6.383 and 6.546 and 6.377 and 6.521 and 6.433
Probeset 1394887_x_at expression (SSRI exposure during gestation): 4.369 and 4.298 and 4.253 and 4.258 and 4.269 and 4.251
Probeset 1395316_at expression (SSRI exposure during gestation): 7.327 and 7.192 and 7.672 and 7.075 and 7.225 and 7.176
Probeset 1396130_at expression (SSRI exposure during gestation): 3.997 and 4.12 and 3.89 and 3.815 and 3.974 and 3.921
Probeset 1397268_at expression (SSRI exposure during gestation): 5.157 and 5.261 and 5.068 and 4.99 and 5.173 and 4.92
Probeset 1397587_at expression (SSRI exposure during gestation): 7.542 and 7.104 and 7.072 and 7.17 and 7.225 and 6.496
Probeset 1397676_at expression (SSRI exposure during gestation): 4.933 and 5.266 and 5.715 and 5.112 and 5.274 and 5.346
Probeset 1397934_at expression (SSRI exposure during gestation): 8.299 and 8.221 and 8.122 and 8.187 (2×) and 8.222
Probeset 1397956_at expression (SSRI exposure during gestation): 6.013 and 6.031 and 6.26 and 5.9 and 5.674 and 6.039
Probeset 1398025_at expression (SSRI exposure during gestation): 7.379 and 7.277 and 7.364 and 7.102 and 7.172 and 7.095
Probeset 1398136_at expression (SSRI exposure during gestation): 4.109 and 4.099 and 4.035 and 4.047 and 4.062 and 4.154
Probeset 1398208_s_at expression (SSRI exposure during gestation): 6.851 and 6.897 and 7.112 and 6.972 and 6.892 and 7.056
Probeset 1398486_at expression (SSRI exposure during gestation): 4.355 and 4.744 and 5.032 and 4.741 and 4.49 and 5.709
Probeset 1398949_at expression (SSRI exposure during gestation): 8.606 and 8.576 and 8.664 and 8.941 and 8.595 and 8.818
Probeset 1399108_at expression (SSRI exposure during gestation): 7.198 and 7.34 and 7.479 and 7.32 and 7.149 and 7.206
Probeset 1368198_at expression value [1]: 5.473 and 5.314 and 5.48 and 5.486
Probeset 1368824_at expression value [1]: 10.44 and 10.31 and 10.75 and 10.8577 and 10.39 and 10.8
Probeset 1369775_at expression value [1]: 9.454 and 9.493 and 9.497 and 9.711 and 9.436 and 9.608
Probeset 1370317_at expression value [1]: 8.582 and 8.538 and 9.288 and 9.274 and 9.399 and 9.017
Probeset 1370918_a_at expression value [1]: 11.48 and 11.57 and 11.99 and 11.82 and 11.71 and 11.77
Probeset 1371174_s_at expression value [1]: 5.805 and 5.865 and 5.868
Probeset 1373572_at expression value [1]: 8.281 and 8.071 and 8.726 and 8.553 and 8.626 and 8.452
Probeset 1373647_at expression value [1]: 8.537 and 8.662 and 9.067 and 8.963 and 8.812 and 8.988
Probeset 1375178_at expression value [1]: 5.304 and 5.523 and 5.583 and 5.437 and 5.444 and 5.62
Probeset 1376622_at expression value [1]: 8.516 and 8.814 and 8.398 and 8.068 and 8.494 and 8.379
Probeset 1376661_at expression value [1]: 8.407 and 8.641 and 7.86 and 7.94 and 7.632 and 8.114
Probeset 1377365_at expression value [1]: 5.846 and 5.083 and 5.532 and 6.127 and 5.643 and 5.687
Probeset 1378200_at expression value [1]: 3.755 and 3.651 and 3.848 and 3.847 and 4.036 and 3.882
Probeset 1378906_at expression value [1]: 3.9529 and 3.997 and 3.87 and 3.96 and 3.996 and 3.763
Probeset 1379691_at expression value [1]: 5.812 and 5.91 and 6.656 and 6.738 and 5.925 and 6.573
Probeset 1379822_at expression value [1]: 4.961 and 4.831 and 5.299 and 4.848 and 5.227 and 5.084
Probeset 1380175_at expression value [1]: 4.934 and 4.975 and 4.85 and 4.93 and 4.966 and 4.859
Probeset 1381456_at expression value [1]: 5.822 and 5.673 and 5.76 and 5.587 and 5.629 and 5.737
Probeset 1381492_at expression value [1]: 3.536 and 3.464 and 3.556 and 3.687 and 3.747 and 3.65
Probeset 1382156_at expression value [1]: 4.178 and 4.6 and 4.28 and 4.232 and 4.706 and 4.384
Probeset 1382670_at expression value [1]: 8.21 and 8.049 and 7.137 and 7.314 and 7.643 and 7.446
Probeset 1383054_at expression value [1]: 9.672 and 9.605 and 9.479 and 9.484 and 9.46 and 9.528
Probeset 1383329_at expression value [1]: 5.299 and 5.567 and 5.281 (2×) and 5.561 and 5.339
Probeset 1384137_at expression value [1]: 3.89 and 3.899
Probeset 1384367_at expression value [1]: 5.152 and 5.5769 and 5.098 and 5.103 and 5.137 and 5.449
Probeset 1384573_at expression value [1]: 9.396 and 9.335 and 9.669 and 9.82 and 10.3 and 9.808
Probeset 1385074_at expression value [1]: 6.094 and 5.703 and 6.069 and 5.946 and 6.214 and 6.404
Probeset 1385290_at expression value [1]: 5.664 (2×) and 5.339 and 5.511 and 5.599 and 5.438
Probeset 1385386_at expression value [1]: 4.05 and 4.2 and 4.368 and 4.404 and 4.111 and 4.351
Probeset 1385391_at expression value [1]: 5.218 and 4.757 and 4.618
Probeset 1385790_at expression value [1]: 8.262 and 8.645 and 8.217 and 8.093 and 8.254 and 8.458
Probeset 1387693_a_at expression value [1]: 4.775 and 5.713 and 5.222 and 5.079 and 4.944 and 5.129
Probeset 1387694_at expression value [1]: 5.039 and 4.874 and 4.919 and 4.933 and 5.073 and 4.691
Probeset 1387822_at expression value [1]: 5.838 and 6.319 and 5.874 and 5.79 and 5.5082 and 5.909
Probeset 1387836_at expression value [1]: 6.664 and 6.515 and 7.321 and 7.12 and 6.632 and 6.906
Probeset 1387914_at expression value [1]: 7.456 and 7.375 and 7.641 and 7.405 and 7.42 and 7.231
Probeset 1388131_at expression value [1]: 5.482 and 5.724 and 5.628 and 5.313 and 5.378 and 5.32
Probeset 1388363_at expression value [1]: 8.48 and 8.558 and 9.033 and 9.198 and 8.642 and 9.018
Probeset 1388669_at expression value [1]: 7.943 and 7.729 and 8.56 and 8.668 and 8.519 and 8.408
Probeset 1389213_at expression value [1]: 7.554 and 7.674 and 7.18 and 7.082 and 7.285 and 7.531
Probeset 1389599_at expression value [1]: 6.535 and 6.776 and 5.918 and 6.015 and 6.327 and 6.205
Probeset 1390406_at expression value [1]: 10.62 (2×) and 11.01 and 10.93 and 11.3 and 11.1
Probeset 1390477_at expression value [1]: 5.088 and 5.213 and 4.637 and 4.864 and 4.99 and 4.712
Probeset 1390592_at expression value [1]: 9.083 and 9.085 and 9.028 and 9.301
Probeset 1391283_at expression value [1]: 5.168 and 5.671 and 5.216 and 5.355 and 5.486 and 5.461
Probeset 1391509_at expression value [1]: 7.81 and 8.329 and 7.825 and 7.918 and 8.117 and 8.184
Probeset 1391678_at expression value [1]: 6.728 and 7.03 and 6.037 and 5.684 and 5.954 and 6.264
Probeset 1391962_at expression value [1]: 4.079 and 4.011 and 3.937 and 4.018 and 4.024 and 3.918
Probeset 1393428_at expression value [1]: 6.698 and 6.377 and 7.114 and 7.29 and 7.299 and 6.755
Probeset 1393438_at expression value [1]: 5.068 and 5.185 and 5.0534 and 5.206 and 4.959 and 5.153
Probeset 1394343_s_at expression value [1]: 3.666 and 3.629 and 3.872 and 3.785 and 3.852 and 3.841
Probeset 1394383_at expression value [1]: 5.713 and 6.062 and 5.324 and 5.199 and 5.6 and 5.247
Probeset 1394887_x_at expression value [1]: 4.063 and 4.143 and 3.656 and 3.536 and 3.475 and 3.919
Probeset 1395817_at expression value [1]: 6.714 and 6.49 and 6.649
Probeset 1396130_at expression value [1]: 3.756 and 3.764 and 3.744 and 3.847 and 3.746 and 3.741
Probeset 1397268_at expression value [1]: 4.565 and 5.072 and 4.482 and 4.73 and 4.645 and 4.567
Probeset 1397587_at expression value [1]: 6.561 and 6.659 and 6.326 and 6.196 and 6.181 and 6.179
Probeset 1397934_at expression value [1]: 8.072 and 8.118 and 7.76 and 7.912 and 7.673 and 7.856
Probeset 1398136_at expression value [1]: 4.139 and 4.205 and 4.178 and 4.175 and 4.278 and 4.212
Probeset 1398486_at expression value [1]: 5.62 and 5.739 and 6.477 and 7.05 and 7.673 and 6.597
Probeset 1398949_at expression value [1]: 9.031 and 8.874 and 9.095 and 9.297 and 9.003 and 9.17
expression, probeset 368199_at (placenta, SSRI-exposed samples): 8.586 and 8.944 and 9.045 and 9.265 and 9.277 and 9.377
expression, probeset 1367489_at (placenta, SSRI-exposed samples): 7.839 and 8.052 and 7.771 and 7.614 and 7.86 and 7.738
expression, probeset 1367856_at (placenta, SSRI-exposed samples): 9.745 and 9.797 and 10.22 and 10.51 and 10.38 and 10.14
expression, probeset 1367866_at (placenta, SSRI-exposed samples): 5.591 and 5.571
expression, probeset 1367877_at (placenta, SSRI-exposed samples): 9.4471 and 9.923 and 9.622 and 8.883 and 9.902 and 8.73
expression, probeset 1367978_at (placenta, SSRI-exposed samples): 5.914 and 6.324 and 5.574 and 5.778 and 5.944 and 5.842
expression, probeset 1368083_at (placenta, SSRI-exposed samples): 8.501 and 8.375 and 9.053 and 8.928 and 9.103 and 8.728
expression, probeset 1368397_at (placenta, SSRI-exposed samples): 3.806 and 3.897 and 3.87 and 3.843 and 3.78 and 3.762
expression, probeset 1368542_at (placenta, SSRI-exposed samples): 6.355 and 7.586 and 6.712 and 6.347 and 6.563 and 7.001
expression, probeset 1368646_at (placenta, SSRI-exposed samples): 5.644 and 5.882 and 5.515 and 5.483 and 5.352 and 5.292
